The source of these data is patent US20220000852A1, “5-HT2A SEROTONIN RECEPTOR INVERSE AGONISTS OR ANTAGONISTS FOR USE IN REDUCING AMYLOID-BETA PEPTIDES AND ACCUMULATION OF AMYLOID PLAQUES” (ACADIA Pharmaceuticals Inc., priority 2016, published 2022).

The test system of assay [1] is beta amyloid. The settings on record: cited from earlier work; for beta amyloid levels and Plaque Burden: Mouse Model of AD.
Assay [2] relates to ISF Aβ. As to the kind of experiment: ISF Aβ levels by hippocampal microdialysis in wild-type mice. The class given is in vivo. The settings on record: 2.5 to 3 months, Example 3, pimavanserin 1 mg/kg, MDL 100,907 3 mg/kg. The protocol:
Wild-type or APP/PS1+/− transgenic mice at the indicated ages (equal male and female) were implanted with unilateral hippocampal microdialysis probes at stereotaxic coordinates (bregma—3.1 mm, 2.5m lateral to midline, and 1.2 mm below dura at a 12° angle) as described (Cirrito et al. 2003; 2011). These probes contain a 38 kDa MWCO semi-permeable membrane and sample Aβ specifically from within the brain ISF. ISF Aβ was measured every 60-90 minutes for up to 72 hours after probe was inserted into the brain. Throughout each study mice was housed in RaTurn caging systems to provide freedom of movement and ad lib food and water while attached the microdialysis equipment. […] After recovery, each mouse had baseline ISF Aβ levels sampled every hour over a 6 hour period followed by administration of either vehicle (saline, pH 6.0 or M DL 100,907. Following drug administration, ISF Aβ was measured every 60-90 minutes for an additional 48 hours. At the end of each experiment ISF Aβ40 was immediately measured by sandwich ELISA. Animals were sacrificed, brains removed, then processed for histological verification of probe placement. FIG. 1A-FIG. 1D discloses the results of Example 1 (MDL 100,907 (M100), a selective 5-HT2A Serotonin Receptor Inverse Agonist on ISF levels of Aβ40 and Aβ42 in wild-type, and in young and aged APP/PS1+/− Transgenic Mice). […]

In assay [3] the test system is ISF Aβ. As to the kind of experiment: ISF Aβ levels by hippocampal microdialysis and sandwich ELISA in APP/PS1+/− transgenic mice. It is filed as in vivo. Conditions: for ISF levels of Aβ: Example 1. The protocol:
Wild-type or APP/PS1+/− transgenic mice at the indicated ages (equal male and female) were implanted with unilateral hippocampal microdialysis probes at stereotaxic coordinates (bregma—3.1 mm, 2.5m lateral to midline, and 1.2 mm below dura at a 12° angle) as described (Cirrito et al. 2003; 2011). These probes contain a 38 kDa MWCO semi-permeable membrane and sample Aβ specifically from within the brain ISF. ISF Aβ was measured every 60-90 minutes for up to 72 hours after probe was inserted into the brain. Throughout each study mice was housed in RaTurn caging systems to provide freedom of movement and ad lib food and water while attached the microdialysis equipment. After probe insertion, animals were allowed to recover for 6 hours in order for the brain to recover and the blood-brain barrier to reform. Microdialysis probe insertion was similar to the procedure described by Cirrito et al. 2003 and 2011. From hours 6-60 after microdialysis probe insertion, ISF Aβ levels were relatively constant which provides the ideal experimental window. After recovery, each mouse had baseline ISF Aβ levels sampled every hour over a 6 hour period followed by administration of either vehicle (saline, pH 6.0 or M DL 100,907. Following drug administration, ISF Aβ was measured every 60-90 minutes for an additional 48 hours. At the end of each experiment ISF Aβ40 was immediately measured by sandwich ELISA. Animals were sacrificed, brains removed, then processed for histological verification of probe placement. FIG. 1A-FIG. 1D discloses the results of Example 1 (MDL 100,907 (M100), a selective 5-HT2A Serotonin Receptor Inverse Agonist on ISF levels of Aβ40 and Aβ42 in wild-type, and in young and aged APP/PS1+/− Transgenic Mice). […] APP/PS1+/− transgenic mice at the indicated ages (equal male and female) were implanted with unilateral hippocampal microdialysis probes at stereotaxic coordinates (bregma—3.1 mm, 2.5m lateral to midline, and 1.2 mm below dura at a 12° angle) as described (Cirrito et al. 2003 and 2011) and ISF Aβ levels measured as described in Example 1. […]
(In general: An ELISA detects its analyte on a solid surface through an enzyme-linked reagent.)

Assay [4] has as its system ISF Aβ. As to the kind of experiment: ISF Aβ levels by hippocampal microdialysis in 5-HT2A−/− mice. The class given is in vivo. The settings on record: 5-HT2A KO (5-HT2A−/−) mice; Example 3; pimavanserin 1 mg/kg, MDL 100,907 3 mg/kg. On the procedure:
Following drug administration, ISF Aβ was measured every 3 hours for an additional 24 hours.

Assay [5] concerns amyloid plaque. As to the kind of experiment: Histological staining of hippocampus for amyloid plaque load after chronic treatment of APP/PS1+/− mice. The class given is in vivo. The text has this: (§1) Incisions were closed by suture or staple to insure the pumps remained in place. Every 5 weeks pumps were removed and new full pumps implanted in the same manner at a different location on the back to provide continuous drug delivery over the 4 month period. In parallel, age and gender matched cohorts of APP/PS1+/− transgenic mice were sacrificed so that amyloid plaque and Aβ levels at the start of treatment could be compared to mice at the end of treatment. […] At the end of the 4 month treatment period, mice were sacrificed, brains removed, and divided into hemispheres. One hemisphere per mouse was processed for guanidine extraction and biochemical analysis by ELISA of Aβ40 and Aβ42 levels in hippocampus as described in Cirrito et al., 2011, with the 5 Molar Guanidine extracts representing the insoluble fractions of Aβ40 and Aβ42. The insoluble fraction is believed to represent the harmful amyloid plaque deposits that are characteristic of Alzheimer's disease. The other hemisphere was used to perform histological staining and analysis of amyloid plaque growth. Start indicates the age and gender matched cohorts sacrificed at the start of the study. Guan indicates 5 Molar Gaunidine. FIG. 4A) 5M Gaunidine fraction of Aβ40 and Aβ42, all genders. FIG. 4B) 5M Guanidine fraction, male and female. […]

The test system of assay [6] is Aβ40 and Aβ42. As to the kind of experiment: Aβ40 and Aβ42 in 5M guanidine hippocampal extracts (ELISA) after chronic treatment of APP/PS1+/− mice. The class given is in vivo. The text has this:
Incisions were closed by suture or staple to insure the pumps remained in place. Every 5 weeks pumps were removed and new full pumps implanted in the same manner at a different location on the back to provide continuous drug delivery over the 4 month period. In parallel, age and gender matched cohorts of APP/PS1+/− transgenic mice were sacrificed so that amyloid plaque and Aβ levels at the start of treatment could be compared to mice at the end of treatment. […] At the end of the 4 month treatment period, mice were sacrificed, brains removed, and divided into hemispheres. One hemisphere per mouse was processed for guanidine extraction and biochemical analysis by ELISA of Aβ40 and Aβ42 levels in hippocampus as described in Cirrito et al., 2011, with the 5 Molar Guanidine extracts representing the insoluble fractions of Aβ40 and Aβ42. The insoluble fraction is believed to represent the harmful amyloid plaque deposits that are characteristic of Alzheimer's disease. The other hemisphere was used to perform histological staining and analysis of amyloid plaque growth. Start indicates the age and gender matched cohorts sacrificed at the start of the study. Guan indicates 5 Molar Gaunidine. FIG. 4A) 5M Gaunidine fraction of Aβ40 and Aβ42, all genders. FIG. 4B) 5M Guanidine fraction, male and female.
Male and Female APP/PS1+/− transgenic mice, age 6 months, were implanted with Alzet osmotic minipumps and treated as described in Example 4. At the end of the 4 month treatment period, mice were sacrificed, brains removed, and divided into hemispheres. In parallel, age and gender matched cohorts of APP/PS1+/− transgenic mice were sacrificed so that amyloid plaque and Aβ levels at the start of treatment could be compared to mice at the end of treatment. Start indicates the age and gender matched cohorts sacrificed at the start of the study. Guan indicates 5 Molar Gaunidine. FIG. 6A) 5M Gaunidine fraction of Aβ40 and Aβ42, all genders. FIG. 6B) F) 5M Guanidine fraction of Aβ40 and Aβ42, male and female. […] Example 7.

Assay [7] concerns Aβ40 and Aβ42. As to the kind of experiment: Aβ40 and Aβ42 in CSF (ELISA) after chronic treatment of APP/PS1+/− mice. The class given is in vivo. Conditions: 6 month old APP/PS1 mice treated for 4 months; Example 8.
Excerpt: as §1, with “disease.” for “disease. The other hemisphere was used to perform histological staining and analysis of amyloid plaque growth. Start indicates the age and gender matched cohorts sacrificed at the start of the study. Guan indicates 5 Molar Gaunidine. FIG. 4A) 5M Gaunidine fraction of Aβ40 and Aβ42, all genders. FIG. 4B) 5M Guanidine fraction, male and female.”
Male and Female APP/PS1+/− transgenic mice, age 6 months, were implanted with Alzet osmotic minipumps and treated as described in Example 4. At the end of the 4 month treatment period, mice were sacrificed, CSF removed using the method of DeMattos et al., 2002 (see page 230, Materials and Methods), and Aβ40 and Aβ42 levels analyzed by ELISA. […]

Each structure is given as a SMILES string.

On to `NCCc1c[nH]c2ccc(O)cc12` [serotonin], for which the “ISF Aβ40 and Aβ42 levels” value in assay [1] (direct infusion into the hippocampus) was “reduced ISF Aβ40 and Aβ42 levels”.
Consider `CNCCC(Oc1ccc(C(F)(F)F)cc1)c1ccccc1` (centres unmarked) [fluoxetine], for which the “beta amyloid levels and Plaque Burden” value in assay [1] was “lower beta amyloid levels and Plaque Burden”.
On to `CN(C)CC(c1ccc(O)cc1)C1(O)CCCCC1` (centres unmarked) [desvenlafaxine], for which the “beta amyloid levels and Plaque Burden” value in assay [1] was “lower beta amyloid levels and Plaque Burden”.
Take `COc1cccc([C@H](O)C2CCN(CCc3ccc(F)cc3)CC2)c1OC` [M100,907, (R)-(+)-α-(2,3-Dimethoxyphenyl)-1-[2-(4-fluorophenyl)ethyl]-4-piperinemethanol]: the “Brain ISF Aβ levels” value in assay [2] is given as “Normalize Brain ISF Aβ Levels”. The “ISF levels of Aβ” value in assay [3] (old (12 month old, fully formed amyloid plaques) APP/PS1 mice) was “robustly lowered levels of Aβ in a dose dependent manner”; in assay [3] (young (3 month old, pre-plaque) APP/PS1 mice), “robustly lowered levels of Aβ in a dose dependent manner”. In addition, in assay [4], the “Aβ-lowering effect on ISF Aβ” value is “abolished”.
For `CC(C)COc1ccc(CNC(=O)N(Cc2ccc(F)cc2)C2CCN(C)CC2)cc1.O=C(O)C(O)C(O)C(=O)O` [pimavanserin, N-(1-methylpiperidin-4-yl)-N-(4-fluorophenylmethyl)-N′-(4-(2-methylpropyloxy)phenylmethyl)carbamide], the “amyloid plaque in hippocampus (histological staining), compared to vehicle treated mice” value in assay [5] (treatment from age 4.5 months for 4 months, Example 5) is “highly significant decreases of amyloid plaque”; in assay [5] (treatment from age 6 months for 4 months, Example 7), “highly significant decreases of amyloid plaque”. For the same compound, in assay [2], the “Brain ISF Aβ levels” value is “Normalize Brain ISF Aβ Levels”. In addition, the “ISF Aβ” value in assay [3] (APP/PS1 mice, single bolus doses or continuous infusion, Example 2) is recorded as “robustly lowered ISF Aβ in APP/PS1 mice in a dose dependent manner”. Further, the “Aβ40 (guanidine fraction) in male mice, treated group (age 10 months) compared to start group (age 6 months)” value in assay [6] (male mice, Example 6B) was “reduction in Aβ40”. Besides, the “levels of the guanidine fraction of Aβ40 and Aβ42 in hippocampus, compared to vehicle treated mice” value is “highly significant reduction” in assay [6] (treatment from age 4.5 months for 4 months, osmotic minipump 3 mg/kg/day, Example 4) and “highly significant reduction” in assay [6] (treatment from age 6 months for 4 months, osmotic minipump, Example 6). Further, the “levels of Aβ40 and Aβ42 (guanidine fraction), treated group at end compared to 'Start' group” value is “not a significant difference” in assay [6] (treatment from age 4.5 months for 4 months, Example 4) and “not a significant difference” in assay [6] (treatment from age 6 months for 4 months, Example 6). In addition, the “Aβ in CSF” value in assay [7] is recorded as “significantly lowered Aβ”.
